target: T1, nanoKAZ luciferase (Oplophorus gracilirostris, UniProt Q9GV45, A31E/A60N/A81I/F95D/I117V/K70R/L54V/L99Q/M102K/N193R/P142E/Q151K/Q38R/Q45L/V71I/Y165I); assay: In vitro bioluminescence screening of imidazo[1,2-a]pyrazin-3(7H)-ones with nanoKAZ expressed in vitro (96-well luminometer, 2 h kinetic); assay type: biochemical; details: Table 1; furimazine = 1
T1 construct: luciferase catalytic domain (nanoKAZ, 19 kDa) from the Oplophorus-derived luciferase; host or cells: cell-free: 1-Step Human Coupled IVT Kit, pT7CFE1-based vector
Description: General protocol for the generation of solutions of imidazo[1,2-a]pyrazin-3(7H)-one Q by acidic hydrolysis of imidazo[1,2-a]pyrazin-3-yl acetate derivatives P. The considered acetate P (1 mg) was dissolved in DMSO (0.2 mL) and then diluted by adding a solution of acidic ethanol (0.3 ml) made from the addition of 37% hydrochloric acid (100 μl) on 100% ethanol (12 mL). This 0.5 mL solution was incubated at 50° C. for 2 hours to give a stock solution which was then stored at −80° C. […] Nota: these conditions are only adapted to the hydrolysis of the protecting group (as defined above) of the oxygen on position 2 of the imidazo[1,2-a]pyrazine ring system and not to the hydrolysis of any additional acetyl groups eventually present elsewhere on the substrate of this reaction.
The representative bioluminescence curves shown in the FIG. 2 provided an assessment for furimazine (Q-1), 8-benzyl-2-(furan-2-ylmethyl)-6-(4-hydroxyphenyl)imidazo[1,2-a]pyrazin-3 (7/1)-one (Q-80), 8-(2-fluorobenzyl)-2-(furan-2-ylmethyl)-6-phenylimidazo[1,2-a]pyrazin-3(7H)-one (Q-84), and 8-(2-fluorobenzyl)-2-((5-methylfuran-2-yl)methyl)-6-phenylimidazo[1,2-a]pyrazin-3(7H)-one (Q-85) was obtained using a luciferase expressed in vitro as described in the following. The nanoKAZ DNA template was cloned into Thermo Scientific pT7CFE1-based vector and nanoKAZ was expressed using ThermoFisher Scientific 1-Step Human Coupled IVT Kit—DNA (ref. 88881) according to the manufacturer instructions. The resulting reaction mix was diluted 400 times in buffer (DPBS (Gibco)+0.1% (v/v) Tween 20) and conserved at −80° C. The screening of the imidazo[1,2-a]pyrazin-3(7H)-ones was performed in 96 well plates using 50 μL/well of a 1/20 dilution in DPBS (Gibco)+0.1% (v/v) Tween 20 of the nanoKAZ solution.
To illustrate the bioluminescence properties improvement achieved for many of the imidazo[1,2-a]pyrazin-3(7H)-ones described here, four values are provided in Table 1: maximum intensity (V1), signal half-life (V2), area under the curve for ten minutes (V3), and area under the curve for two hours (V4), normalized using furimazine (Q-1) as a reference.
The bioluminescence properties of the tested compounds are considered to be improved when at least one of the values V1-V4 is above 1, and when none of the V1-V4 values is 0.05 or below.
By following the hydrolysis protocol described above, the following imidazo[1,2-a]pyrazin-3(7H)-ones luciferins Q were made in situ from the corresponding O-protected imidazo[1,2-a]pyrazines P and evaluated for their bioluminescence properties (maximum intensity (V1), signal half-life (V2), area under the curve for […], normalized using furimazine (Q-1) as a reference): […]

T1 sequence (Q9GV45 other isoform, or with tags, fused parts or gaps with the stated changes): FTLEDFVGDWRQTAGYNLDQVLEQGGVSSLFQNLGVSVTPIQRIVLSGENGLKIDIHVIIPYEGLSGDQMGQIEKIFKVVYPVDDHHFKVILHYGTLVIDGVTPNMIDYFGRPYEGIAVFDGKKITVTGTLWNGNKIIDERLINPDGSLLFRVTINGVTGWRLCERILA

Compared with `O=c1c(Cc2ccco2)nc2c(Cc3ccccc3)[nH]c(-c3ccc(O)cc3)cn1-2` [Q-80, 8-benzyl-2-(furan-2-ylmethyl)-6-(4-hydroxyphenyl)imidazo[1,2-a]pyrazin-3(7H)-one, reference compound], `O=c1c(Cc2ccco2)nc2c(Cc3cccc(F)c3)[nH]c(-c3ccccc3)cn1-2` [Q-81, 8-(3-fluorobenzyl)-2-(furan-2-ylmethyl)-6-phenylimidazo[1,2-a]pyrazin-3(7H)-one] is lower in “V1: maximum intensity, normalized using furimazine (Q-1) as a reference” value (shortened to “V1: maximum intensity, normalized”): 3.06 for the first, 0.82 for the second.

Compared with `Cc1cccc(Cc2nc3c(Cc4ccccc4F)[nH]c(-c4ccccc4)cn-3c2=O)c1` [Q-82, 8-(2-fluorobenzyl)-2-(3-methylbenzyl)-6-phenylimidazo[1,2-a]pyrazin-3(7H)-one], `COc1cccc(Cc2nc3c(Cc4ccccc4F)[nH]c(-c4ccccc4)cn-3c2=O)c1` [Q-83, 8-(2-fluorobenzyl)-2-(3-methoxybenzyl)-6-phenylimidazo[1,2-a]pyrazin-3(7H)-one] is higher in “V1: maximum intensity, normalized” value: 1.36 for the first, 1.46 for the second.

Compared with `O=c1c(Cc2ccco2)nc2c(Cc3ccccc3F)[nH]c(-c3ccccc3)cn1-2` [Q-84, 8-(2-fluorobenzyl)-2-(furan-2-ylmethyl)-6-phenylimidazo[1,2-a]pyrazin-3(7H)-one], `Cc1ccc(Cc2nc3c(Cc4ccccc4F)[nH]c(-c4ccccc4)cn-3c2=O)o1` [Q-85, 8-(2-fluorobenzyl)-2-((5-methylfuran-2-yl)methyl)-6-phenylimidazo[1,2-a]pyrazin-3(7H)-one] is higher in “V1: maximum intensity, normalized” value: 0.84 for the first, 2.3 for the second.

Going from `CCc1ccc(Cc2nc3c(Cc4ccccc4F)[nH]c(-c4ccccc4)cn-3c2=O)o1` [Q-96, 2-((5-ethylfuran-2-yl)methyl)-8-(2-fluorobenzyl)-6-phenylimidazo[1,2-a]pyrazin-3(7H)-one] to `CCc1ccc(Cc2nc3c(Cc4cccc(F)c4)[nH]c(-c4ccccc4)cn-3c2=O)o1` [Q-99, 2-((5-ethylfuran-2-yl)methyl)-8-(3-fluorobenzyl)-6-phenylimidazo[1,2-a]pyrazin-3(7H)-one], the “V1: maximum intensity, normalized” value falls from 2.51 to 1.99.

Compared with `Cc1ccc(Cc2nc3c(Cc4cccc(F)c4)[nH]c(-c4ccccc4)cn-3c2=O)o1` [Q-97, 8-(3-fluorobenzyl)-2-((5-methylfuran-2-yl)methyl)-6-phenylimidazo[1,2-a]pyrazin-3(7H)-one], `Cc1ccc(Cc2nc3c(Cc4ccccc4Cl)[nH]c(-c4ccccc4)cn-3c2=O)o1` [Q-98, 8-(2-chlorobenzyl)-2-((5-methylfuran-2-yl)methyl)-6-phenylimidazo[1,2-a]pyrazin-3(7H)-one] is lower in “V1: maximum intensity, normalized” value: 2.04 for the first, 1.18 for the second.

Going from `O=c1c(Cc2ccco2)nc2c(Cc3ccccc3)[nH]c(-c3ccc(O)cc3)cn1-2` [Q-80, 8-benzyl-2-(furan-2-ylmethyl)-6-(4-hydroxyphenyl)imidazo[1,2-a]pyrazin-3(7H)-one, reference compound] to `O=c1c(Cc2ccco2)nc2c(Cc3cccc(F)c3)[nH]c(-c3ccccc3)cn1-2` [Q-81, 8-(3-fluorobenzyl)-2-(furan-2-ylmethyl)-6-phenylimidazo[1,2-a]pyrazin-3(7H)-one], the “V3: area under the curve for ten minutes, normalized using furimazine (Q-1) as a reference” value rises from 0.79 to 0.92.

Going from `Cc1cccc(Cc2nc3c(Cc4ccccc4F)[nH]c(-c4ccccc4)cn-3c2=O)c1` [Q-82, 8-(2-fluorobenzyl)-2-(3-methylbenzyl)-6-phenylimidazo[1,2-a]pyrazin-3(7H)-one] to `COc1cccc(Cc2nc3c(Cc4ccccc4F)[nH]c(-c4ccccc4)cn-3c2=O)c1` [Q-83, 8-(2-fluorobenzyl)-2-(3-methoxybenzyl)-6-phenylimidazo[1,2-a]pyrazin-3(7H)-one], the “V3: area under the curve for ten minutes, normalized using furimazine (Q-1) as a reference” value rises from 1.38 to 1.49.

First: O=c1c(Cc2ccco2)nc2c(Cc3ccccc3F)[nH]c(-c3ccccc3)cn1-2 [Q-84, 8-(2-fluorobenzyl)-2-(furan-2-ylmethyl)-6-phenylimidazo[1,2-a]pyrazin-3(7H)-one]
Second: Cc1ccc(Cc2nc3c(Cc4ccccc4F)[nH]c(-c4ccccc4)cn-3c2=O)o1 [Q-85, 8-(2-fluorobenzyl)-2-((5-methylfuran-2-yl)methyl)-6-phenylimidazo[1,2-a]pyrazin-3(7H)-one]
The “V3: area under the curve for ten minutes, normalized using furimazine (Q-1) as a reference” value of the first is lower: 0.91 for the first, 2.4 for the second.

Compared with `CCc1ccc(Cc2nc3c(Cc4ccccc4F)[nH]c(-c4ccccc4)cn-3c2=O)o1` [Q-96, 2-((5-ethylfuran-2-yl)methyl)-8-(2-fluorobenzyl)-6-phenylimidazo[1,2-a]pyrazin-3(7H)-one], `CCc1ccc(Cc2nc3c(Cc4cccc(F)c4)[nH]c(-c4ccccc4)cn-3c2=O)o1` [Q-99, 2-((5-ethylfuran-2-yl)methyl)-8-(3-fluorobenzyl)-6-phenylimidazo[1,2-a]pyrazin-3(7H)-one] is lower in “V3: area under the curve for ten minutes, normalized using furimazine (Q-1) as a reference” value: 2.68 for the first, 2.13 for the second.

Going from `Cc1ccc(Cc2nc3c(Cc4cccc(F)c4)[nH]c(-c4ccccc4)cn-3c2=O)o1` [Q-97, 8-(3-fluorobenzyl)-2-((5-methylfuran-2-yl)methyl)-6-phenylimidazo[1,2-a]pyrazin-3(7H)-one] to `Cc1ccc(Cc2nc3c(Cc4ccccc4Cl)[nH]c(-c4ccccc4)cn-3c2=O)o1` [Q-98, 8-(2-chlorobenzyl)-2-((5-methylfuran-2-yl)methyl)-6-phenylimidazo[1,2-a]pyrazin-3(7H)-one], the “V3: area under the curve for ten minutes, normalized using furimazine (Q-1) as a reference” value falls from 2.20 to 1.28.

First: O=c1c(Cc2ccco2)nc2c(Cc3ccccc3)[nH]c(-c3ccc(O)cc3)cn1-2 [Q-80, 8-benzyl-2-(furan-2-ylmethyl)-6-(4-hydroxyphenyl)imidazo[1,2-a]pyrazin-3(7H)-one, reference compound]
Second: O=c1c(Cc2ccco2)nc2c(Cc3cccc(F)c3)[nH]c(-c3ccccc3)cn1-2 [Q-81, 8-(3-fluorobenzyl)-2-(furan-2-ylmethyl)-6-phenylimidazo[1,2-a]pyrazin-3(7H)-one]
The “V4: area under the curve for two hours, normalized using furimazine (Q-1) as a reference” value of the first is lower: 0.14 for the first, 1.31 for the second.

Going from `Cc1cccc(Cc2nc3c(Cc4ccccc4F)[nH]c(-c4ccccc4)cn-3c2=O)c1` [Q-82, 8-(2-fluorobenzyl)-2-(3-methylbenzyl)-6-phenylimidazo[1,2-a]pyrazin-3(7H)-one] to `COc1cccc(Cc2nc3c(Cc4ccccc4F)[nH]c(-c4ccccc4)cn-3c2=O)c1` [Q-83, 8-(2-fluorobenzyl)-2-(3-methoxybenzyl)-6-phenylimidazo[1,2-a]pyrazin-3(7H)-one], the “V4: area under the curve for two hours, normalized using furimazine (Q-1) as a reference” value rises from 0.84 to 1.12.

Compared with `O=c1c(Cc2ccco2)nc2c(Cc3ccccc3F)[nH]c(-c3ccccc3)cn1-2` [Q-84, 8-(2-fluorobenzyl)-2-(furan-2-ylmethyl)-6-phenylimidazo[1,2-a]pyrazin-3(7H)-one], `Cc1ccc(Cc2nc3c(Cc4ccccc4F)[nH]c(-c4ccccc4)cn-3c2=O)o1` [Q-85, 8-(2-fluorobenzyl)-2-((5-methylfuran-2-yl)methyl)-6-phenylimidazo[1,2-a]pyrazin-3(7H)-one] is higher in “V4: area under the curve for two hours, normalized using furimazine (Q-1) as a reference” value: 1.18 for the first, 1.81 for the second.

First: CCc1ccc(Cc2nc3c(Cc4ccccc4F)[nH]c(-c4ccccc4)cn-3c2=O)o1 [Q-96, 2-((5-ethylfuran-2-yl)methyl)-8-(2-fluorobenzyl)-6-phenylimidazo[1,2-a]pyrazin-3(7H)-one]
Second: CCc1ccc(Cc2nc3c(Cc4cccc(F)c4)[nH]c(-c4ccccc4)cn-3c2=O)o1 [Q-99, 2-((5-ethylfuran-2-yl)methyl)-8-(3-fluorobenzyl)-6-phenylimidazo[1,2-a]pyrazin-3(7H)-one]
The “V4: area under the curve for two hours, normalized using furimazine (Q-1) as a reference” value of the first is lower: 1.98 for the first, 2.08 for the second.

Going from `Cc1ccc(Cc2nc3c(Cc4cccc(F)c4)[nH]c(-c4ccccc4)cn-3c2=O)o1` [Q-97, 8-(3-fluorobenzyl)-2-((5-methylfuran-2-yl)methyl)-6-phenylimidazo[1,2-a]pyrazin-3(7H)-one] to `Cc1ccc(Cc2nc3c(Cc4ccccc4Cl)[nH]c(-c4ccccc4)cn-3c2=O)o1` [Q-98, 8-(2-chlorobenzyl)-2-((5-methylfuran-2-yl)methyl)-6-phenylimidazo[1,2-a]pyrazin-3(7H)-one], the “V4: area under the curve for two hours, normalized using furimazine (Q-1) as a reference” value falls from 2.04 to 1.20.

Reference: patent US12612411B1, “Imidazopyrazine derivatives, process for preparation thereof, and their uses as luciferins” (INSTITUT PASTEUR, priority 2017, dated 2026)
